US12077503B2, “Substituted cyclic amides and their use as herbicides” (FMC CORPORATION, priority 2015, dated 2024)

Key:
Type in all cases: in vivo
corn (Zea mays) = test: Test A postemergence; details: for Corn plant response rating: 125 g ai/ha, postemergence, visual injury rating on 0 to 100 scale (0 no effect, 100 complete control), approx. 10 d; for Plant response rating, Corn: Postemergence, 500 g ai/ha, 0 to 100 scale where 0 is no effect and 100 is complete control
Excerpt: (§1) Seeds of plant species selected from barnyardgrass (Echinochloa crus-galli), Kochia (Kochia scoparia), ragweed (common ragweed, Ambrosia elatior), ryegrass, Italian (Italian ryegrass, Lolium multiflorum), crabgrass, large (Digitaria sanguinalis), giant foxtail (Setaria faberii), green foxtail (Setaria viridis), morningglory (Ipomoea spp.), pigweed (Amaranthus retroflexus), velvetleaf (Abutilon theophrasti), wheat (Triticum aestivum), and corn (Zea mays) were planted into a blend of loam soil and sand and treated preemergence with a directed soil spray using test chemicals formulated in anon-phytotoxic solvent mixture which included a surfactant.
(§2) At the same time, plants selected from these crop and weed species and also blackgrass (Alopecurus myosuroides), and Galium (catchweed bedstraw, Galium aparine) were planted in pots containing the same blend of loam soil and sand and treated with postemergence applications of test chemicals formulated in the same manner. Plants ranged in height from 2 to 10 cm and were in the one- to two-leaf stage for the postemergence treatment. Treated plants and untreated controls were maintained in a greenhouse for approximately 10 d, after which time all treated plants were compared to untreated controls and visually evaluated for injury. Plant response ratings, summarized in Table A, are based on a 0 to 100 scale where 0 is no effect and 100 is complete control. A dash (-) response means no test result.

[1] = test system: wheat (Triticum aestivum); test: Test A postemergence; details: for Wheat plant response rating: 125 g ai/ha, postemergence, visual injury rating on 0 to 100 scale (0 no effect, 100 complete control), approx. 10 d; for Plant response rating, Wheat: Postemergence, 500 g ai/ha, 0 to 100 scale where 0 is no effect and 100 is complete control
Excerpt: as §1, §2

[2] = test system: giant foxtail (Setaria faberii); test: Test A postemergence; details: for Foxtail, Giant plant response rating: 125 g ai/ha, postemergence, visual injury rating on 0 to 100 scale (0 no effect, 100 complete control), approx. 10 d; for Plant response rating, Foxtail, Giant: Postemergence, 500 g ai/ha, 0 to 100 scale where 0 is no effect and 100 is complete control
Excerpt: as §1, §2

[3] = test system: ryegrass, Italian (Italian ryegrass, Lolium multiflorum); test: Test A postemergence; details: for Ryegrass, Italian plant response rating: 125 g ai/ha, postemergence, visual injury rating on 0 to 100 scale (0 no effect, 100 complete control), approx. 10 d; for Plant response rating, Ryegrass, Italian: Postemergence, 500 g ai/ha, 0 to 100 scale where 0 is no effect and 100 is complete control
Excerpt: as §1, §2

[4] = test system: blackgrass (Alopecurus myosuroides); test: Test A postemergence; details: for Blackgrass plant response rating: 125 g ai/ha, postemergence, visual injury rating on 0 to 100 scale (0 no effect, 100 complete control), approx. 10 d; for Plant response rating, Blackgrass: Postemergence, 500 g ai/ha, 0 to 100 scale where 0 is no effect and 100 is complete control
Excerpt: as §1, §2

Kochia (Kochia scoparia) [5] = test: Test A postemergence; details: for Kochia plant response rating: 125 g ai/ha, postemergence, visual injury rating on 0 to 100 scale (0 no effect, 100 complete control), approx. 10 d; for Plant response rating, Kochia: Postemergence, 500 g ai/ha, 0 to 100 scale where 0 is no effect and 100 is complete control
Excerpt: as §1, §2

[6] = test system: Galium (catchweed bedstraw, Galium aparine); test: Test A postemergence; details: for Galium plant response rating: 125 g ai/ha, postemergence, visual injury rating on 0 to 100 scale (0 no effect, 100 complete control), approx. 10 d; for Plant response rating, Galium: Postemergence, 500 g ai/ha, 0 to 100 scale where 0 is no effect and 100 is complete control
Excerpt: as §1, §2

[7] = test system: pigweed (Amaranthus retroflexus); test: Test A postemergence; details: for Pigweed plant response rating: 125 g ai/ha, postemergence, visual injury rating on 0 to 100 scale (0 no effect, 100 complete control), approx. 10 d; for Plant response rating, Pigweed: Postemergence, 500 g ai/ha, 0 to 100 scale where 0 is no effect and 100 is complete control
Excerpt: as §1, §2

[8] = test system: ragweed (common ragweed, Ambrosia elatior); test: Test A postemergence; details: for Ragweed plant response rating: 125 g ai/ha, postemergence, visual injury rating on 0 to 100 scale (0 no effect, 100 complete control), approx. 10 d; for Plant response rating, Ragweed: Postemergence, 500 g ai/ha, 0 to 100 scale where 0 is no effect and 100 is complete control
Excerpt: as §1, §2

[9] = test system: barnyardgrass (Echinochloa crus-galli); test: Test A postemergence; details: for Barnyardgrass plant response rating: 125 g ai/ha, postemergence, visual injury rating on 0 to 100 scale (0 no effect, 100 complete control), approx. 10 d; for Plant response rating, Barnyardgrass: Postemergence, 500 g ai/ha, 0 to 100 scale where 0 is no effect and 100 is complete control
Excerpt: as §1, §2

rice (Oryra sativa) = test: Test B flooded paddy test; details: Flood, 250 g ai/ha; 0 to 100 scale where 0 is no effect and 100 is complete control; 13 to 15 d
Summary of the method: (§3)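 Flooding to 3 cm over soil accompanied treatment, which consisted of adding compound to the standing water around 2-leaf plants; depth was then maintained. Visual assessment versus controls followed at 13 to 15 d (scale 0–100, 0 meaning no effect).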

[10] = test system: sedge, umbrella (small-flower umbrella sedge, Cyperus difformis); test: Test B flooded paddy test; details: Flood, 250 g ai/ha; 0 to 100 scale where 0 is no effect and 100 is complete control; 13 to 15 d
Summary of the method: as §3

[11] = test system: ducksalad (Heteranthera limosa); test: Test B flooded paddy test; details: Flood, 250 g ai/ha; 0 to 100 scale where 0 is no effect and 100 is complete control; 13 to 15 d
Summary of the method: as §3

[12] = test system: barnyardgrass (Echinochloa crus-galli); test: Test B flooded paddy test; details: Flood, 250 g ai/ha; 0 to 100 scale where 0 is no effect and 100 is complete control; 13 to 15 d
Summary of the method: as §3

[13] = test system: giant foxtail (Setaria faberii); test: Test A preemergence; details: Preemergence; for Plant response rating, Foxtail, Giant: 125 g ai/ha, visual injury after approximately 10 d, 0 to 100 scale where 0 is no effect and 100 is complete control; for Foxtail, Giant plant response rating (0 to 100 scale, 0 is no effect, 100 is complete control): 500 g ai/ha, visual injury approx. 10 d
Excerpt: as §1, §2

[14] = test system: ryegrass, Italian (Italian ryegrass, Lolium multiflorum); test: Test A preemergence; details: Preemergence; for Plant response rating, Ryegrass, Italian: 125 g ai/ha, visual injury after approximately 10 d, 0 to 100 scale where 0 is no effect and 100 is complete control; for Ryegrass, Italian plant response rating (0 to 100 scale, 0 is no effect, 100 is complete control): 500 g ai/ha, visual injury approx. 10 d
Excerpt: as §1, §2

Kochia (Kochia scoparia) [15] = test: Test A preemergence; details: Preemergence; for Plant response rating, Kochia: 125 g ai/ha, visual injury after approximately 10 d, 0 to 100 scale where 0 is no effect and 100 is complete control; for Kochia plant response rating (0 to 100 scale, 0 is no effect, 100 is complete control): 500 g ai/ha, visual injury approx. 10 d
Excerpt: as §1, §2

[16] = test system: pigweed (Amaranthus retroflexus); test: Test A preemergence; details: Preemergence; for Plant response rating, Pigweed: 125 g ai/ha, visual injury after approximately 10 d, 0 to 100 scale where 0 is no effect and 100 is complete control; for Pigweed plant response rating (0 to 100 scale, 0 is no effect, 100 is complete control): 500 g ai/ha, visual injury approx. 10 d
Excerpt: as §1, §2

[17] = test system: ragweed (common ragweed, Ambrosia elatior); test: Test A preemergence; details: Preemergence; for Plant response rating, Ragweed: 125 g ai/ha, visual injury after approximately 10 d, 0 to 100 scale where 0 is no effect and 100 is complete control; for Ragweed plant response rating (0 to 100 scale, 0 is no effect, 100 is complete control): 500 g ai/ha, visual injury approx. 10 d
Excerpt: as §1, §2

[18] = test system: barnyardgrass (Echinochloa crus-galli); test: Test A preemergence; details: Preemergence; for Plant response rating, Barnyardgrass: 125 g ai/ha, visual injury after approximately 10 d, 0 to 100 scale where 0 is no effect and 100 is complete control; for Barnyardgrass plant response rating (0 to 100 scale, 0 is no effect, 100 is complete control): 500 g ai/ha, visual injury approx. 10 d
Excerpt: as §1, §2

Structure (SMILES) | Corn plant response rating (corn (Zea mays)) | Plant response rating, Corn (corn (Zea mays)) | Wheat plant response rating [1] | Plant response rating, Wheat [1] | Foxtail, Giant plant response rating [2] | Plant response rating, Foxtail, Giant [2] | Ryegrass, Italian plant response rating [3] | Plant response rating, Ryegrass, Italian [3] | Blackgrass plant response rating [4] | Plant response rating, Blackgrass [4] | Kochia plant response rating (Kochia (Kochia scoparia) [5]) | Plant response rating, Kochia (Kochia (Kochia scoparia) [5]) | Galium plant response rating [6] | Plant response rating, Galium [6] | Pigweed plant response rating [7] | Plant response rating, Pigweed [7] | Ragweed plant response rating [8] | Plant response rating, Ragweed [8] | Barnyardgrass plant response rating [9] | Plant response rating, Barnyardgrass [9] | also measured
O=C1NCC(c2c(F)cccc2F)C1C(=O)Nc1ccccc1F (racemic) [Compound 515] | 0 | 0 | 0 | 0 | 0 | 0 | 0 | 0 | 0 | 0 | 0 | 0 | 0 | 0 | 0 | 0 | 0 | 0 | 0 | 20 | Plant response rating, Rice (rice (Oryra sativa)): 0; Plant response rating, Sedge, Umbrella [10]: 0; Plant response rating, Ducksalad [11]: 0; Plant response rating, Barnyardgrass [12]: 0; Plant response rating, Foxtail, Giant [13]: 0; Foxtail, Giant plant response rating (0 to 100 scale, 0 is no effect, 100 is complete control) [13]: 70; Plant response rating, Ryegrass, Italian [14]: 0; Ryegrass, Italian plant response rating (0 to 100 scale, 0 is no effect, 100 is complete control) [14]: 0; Plant response rating, Kochia (Kochia (Kochia scoparia) [15]): 0; Kochia plant response rating (0 to 100 scale, 0 is no effect, 100 is complete control) (Kochia (Kochia scoparia) [15]): 0; Plant response rating, Pigweed [16]: 0; Pigweed plant response rating (0 to 100 scale, 0 is no effect, 100 is complete control) [16]: 0; Plant response rating, Ragweed [17]: 0; Ragweed plant response rating (0 to 100 scale, 0 is no effect, 100 is complete control) [17]: 0; Plant response rating, Barnyardgrass [18]: 0; Barnyardgrass plant response rating (0 to 100 scale, 0 is no effect, 100 is complete control) [18]: 0
O=C1NCC(c2ccc(F)cc2F)C1C(=O)Nc1ccc(F)cc1F (racemic) [Compound 518] | 0 | 0 | 0 | 0 | 20 | 70 | 0 | 0 | 0 | 0 | 0 | 0 | 0 | 20 | 0 | 0 | 0 | 0 | 0 | 50 | Plant response rating, Rice (rice (Oryra sativa)): 0; Plant response rating, Sedge, Umbrella [10]: 0; Plant response rating, Ducksalad [11]: 65; Plant response rating, Barnyardgrass [12]: 0; Plant response rating, Foxtail, Giant [13]: 70; Foxtail, Giant plant response rating (0 to 100 scale, 0 is no effect, 100 is complete control) [13]: 90; Plant response rating, Ryegrass, Italian [14]: 0; Ryegrass, Italian plant response rating (0 to 100 scale, 0 is no effect, 100 is complete control) [14]: 0; Plant response rating, Kochia (Kochia (Kochia scoparia) [15]): 0; Kochia plant response rating (0 to 100 scale, 0 is no effect, 100 is complete control) (Kochia (Kochia scoparia) [15]): 0; Plant response rating, Pigweed [16]: 0; Pigweed plant response rating (0 to 100 scale, 0 is no effect, 100 is complete control) [16]: 0; Plant response rating, Ragweed [17]: 0; Ragweed plant response rating (0 to 100 scale, 0 is no effect, 100 is complete control) [17]: 0; Plant response rating, Barnyardgrass [18]: 0; Barnyardgrass plant response rating (0 to 100 scale, 0 is no effect, 100 is complete control) [18]: 60
